Measured values from patent US20240018120A1, “MAGL INHIBITORS” (H. LUNDBECK A/S, priority 2020, published 2024).

How the values were obtained:
[1] = system: cryopreserved human hepatocytes; test: In vitro human hepatocyte stability; format: in vitro ADME; details: human hepatocytes 0.5×10^6 cells/mL, 1 μM
Protocol: The metabolic stability of test articles (1 μM) in commercially sourced, pooled donor, cryopreserved human hepatocytes (0.5×10^6 cells/mL) was determined in duplicate. The CLint reactions (250 μL) were initiated by addition of test compound. Aliquots (25 μL) were taken at 0, 15, 30, 45, 60, 90, 120 and 240 minutes and then protein crashed with ice-cold acetonitrile containing internal standard then centrifuged (3220 g for 25 minutes). Supernatant was used for LC-MS/MS analysis. The in vitro half-life (in vitro t½) was determined from the slope value: in vitro t1/2=−0.693/k. Conversion of the in vitro t1/2 (in min) into the scale-up unbound intrinsic clearance (Scaled-up unbound CLint, in mL/min/kg) was done using the following equation (mean of duplicate determinations), with data shown in Table 5: Scaled-up unbound CLint=kV/N×scaling factor. V=incubation volume (0.25 mL); N=number of hepatocytes per well ([…]). Scaling factors for in vivo intrinsic clearance prediction are listed below: […]

[2] = biological target: T1, MAGL (Homo sapiens, UniProt Q99685); test: In vitro competitive activity-based protein profiling, PC3 human cell membrane proteomes; format: biochemical; set-up: endogenous in cells; host or cells: PC3 human cells (membrane proteome); details: human PC3 membrane proteome; for inhibition at 1 µM: read-out: MAGL % inh. 1 μM (human PC3)
T1 sequence (Q99685 1-303): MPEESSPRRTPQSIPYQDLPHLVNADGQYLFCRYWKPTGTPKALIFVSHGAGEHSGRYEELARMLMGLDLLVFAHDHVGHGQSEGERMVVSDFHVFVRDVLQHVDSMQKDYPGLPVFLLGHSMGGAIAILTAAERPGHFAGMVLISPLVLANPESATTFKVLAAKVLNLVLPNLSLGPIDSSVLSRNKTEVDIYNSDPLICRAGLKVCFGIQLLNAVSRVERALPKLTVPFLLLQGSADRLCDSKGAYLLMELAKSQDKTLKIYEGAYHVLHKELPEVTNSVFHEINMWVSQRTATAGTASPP
How it was run: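 Competitive ABPP in PC3 membrane proteome (2.0 mg/mL protein): inhibitors preincubated 30 min at 37° C, then JW912-Bodipy probe added for 30 min at room temperature. MAGL band fluorescence after SDS-PAGE normalised to DMSO; IC50 from 4-parameter sigmoidal fit.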

[3] = biological target: T1, MAGL; test: In vitro competitive substrate hydrolysis enzyme activity assay (pNPA), HEK293 cell lysates; format: biochemical; set-up: expressed in transfected cells; host or cells: HEK293; details: HEK293 lysate
How it was run: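 Lysates of HEK293 cells expressing human MAGL (~1.2 μg protein) preincubated 30 min at 25° C with inhibitor in 50 mM HEPES pH 7.0, 200 mM KCl, 1 mM EDTA. pNPA substrate then added (2× stock 2.5 mM), and A405 followed for 20 min at 25° C. Rates normalized to DMSO, and IC50 from 4-parameter fit.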

Row | SMILES | Scaled-up unbound CLint [1] [mL/min/kg] | IC50 [2] [µM] | IC50 [3] [µM] | inhibition at 1 µM [2] [%]
1 | Cn1nccc1NC(=O)C1CC12CCN(C(=O)OC(C(F)(F)F)C(F)(F)F)CC2 (single isomer, unassigned) [Example 135, 1,1,1,3,3,3-hexafluoropropan-2-yl (R or S)-1-((1-methyl-1H-pyrazol-5-yl)carbamoyl)-6-azaspiro[2.5]octane-6-carboxylate] | 16.79 | 0.015 | – | –
2 | O=C(Nc1cncs1)C1CC12CCN(C(=O)OC(C(F)(F)F)C(F)(F)F)CC2 (single isomer, unassigned) [Example 129, 1,1,1,3,3,3-hexafluoropropan-2-yl (R or S)-1-(thiazol-5-ylcarbamoyl)-6-azaspiro[2.5]octane-6-carboxylate] | 53.56 | – | – | –
3 | O=C(NCC1CCOCC1)[C@H]1CC12CCN(C(=O)OC(C(F)(F)F)C(F)(F)F)CC2 (single isomer, unassigned) [Example 117] | 20.55 | 0.0047 | – | –
4 | O=C(NCc1ccccc1)[C@H]1CC12CCN(C(=O)OC(C(F)(F)F)C(F)(F)F)CC2 (single isomer, unassigned) [Example 150] | 88.79 | 0.0031 | – | –
5 | O=C(Nc1ccncc1)C1CC12CCN(C(=O)OC(C(F)(F)F)C(F)(F)F)CC2 (single isomer, unassigned) [Example 24, 1,1,1,3,3,3-Hexafluoropropan-2-yl (R or S)-1-(pyridin-4-ylcarbamoyl)-6-azaspiro[2.5]octane-6-carboxylate] | 11.9 | 0.0024 | – | –
6 | CC1(CNC(=O)C2CC23CCN(C(=O)OC(C(F)(F)F)C(F)(F)F)CC3)CCOCC1 (single isomer, unassigned) [Example 168, 1,1,1,3,3,3-hexafluoropropan-2-yl (R or S)-1-(((4-methyltetrahydro-2H-pyran-4-yl)methyl)carbamoyl)-6-azaspiro[2.5]octane-6-carboxylate] | 61.36 | 0.0074 | – | –
7 | CC1(NC(=O)C2CC23CCN(C(=O)OC(C(F)(F)F)C(F)(F)F)CC3)CCOCC1 (single isomer, unassigned) [Example 132, 1,1,1,3,3,3-hexafluoropropan-2-yl (R or S)-1-((4-methyltetrahydro-2H-pyran-4-yl)carbamoyl)-6-azaspiro[2.5]octane-6-carboxylate] | 44.18 | 0.027 | – | –
8 | Cc1cnc(NC(=O)C2CC23CCN(C(=O)OC(C(F)(F)F)C(F)(F)F)CC3)cn1 (single isomer, unassigned) [Example 112, 1,1,1,3,3,3-hexafluoropropan-2-yl (R or S)-1-((5-methylpyrazin-2-yl)carbamoyl)-6-azaspiro[2.5]octane-6-carboxylate] | 9.59 | 0.0042 | – | –
9 | CS(=O)(=O)Nc1ccc(NC(=O)C2CC23CCN(C(=O)OC(C(F)(F)F)C(F)(F)F)CC3)cn1 (single isomer, unassigned) [Example 181, 1,1,1,3,3,3-hexafluoropropan-2-yl (R or S)-1-((6-(methylsulfonamido)pyridin-3-yl)carbamoyl)-6-azaspiro[2.5]octane-6-carboxylate] | 1.94 | 0.0305 | – | –
10 | O=C(Nc1ccc(-n2cccn2)nc1)C1CC12CCN(C(=O)OC(C(F)(F)F)C(F)(F)F)CC2 (single isomer, unassigned) [Example 29, 1,1,1,3,3,3-Hexafluoropropan-2-yl (R or S)-1-((6-(1H-pyrazol-1-yl)pyridin-3-yl)carbamoyl)-6-azaspiro[2.5]octane-6-carboxylate] | 32.74 | 0.003 | – | –
11 | O=C(Nc1cccnc1)[C@H]1CC12CCN(C(=O)OC(C(F)(F)F)C(F)(F)F)CC2 (single isomer, unassigned) [Example 2] | 34.8 | 0.002 | 0.00289 | 100
12 | O=C(Nc1nccs1)C1CC12CCN(C(=O)OC(C(F)(F)F)C(F)(F)F)CC2 (single isomer, unassigned) [Example 138, 1,1,1,3,3,3-hexafluoropropan-2-yl (R or S)-1-(thiazol-2-ylcarbamoyl)-6-azaspiro[2.5]octane-6-carboxylate] | 40.48 | 0.001 | – | –
13 | Cn1ccc(NC(=O)C2CC23CCN(C(=O)OC(C(F)(F)F)C(F)(F)F)CC3)n1 (single isomer, unassigned) [Example 127, 1,1,1,3,3,3-hexafluoropropan-2-yl (R or S)-1-((1-methyl-1H-pyrazol-3-yl)carbamoyl)-6-azaspiro[2.5]octane-6-carboxylate] | 9.51 | 0.019 | – | –
14 | O=C(Nc1cncnc1)C1CC12CCN(C(=O)OC(C(F)(F)F)C(F)(F)F)CC2 (single isomer, unassigned) [Example 96, 1,1,1,3,3,3-hexafluoropropan-2-yl (R or S)-1-(pyrimidin-5-ylcarbamoyl)-6-azaspiro[2.5]octane-6-carboxylate] | 17.09 | 0.0193 | 0.0489 | 100
15 | O=C(Nc1cncc(F)c1)C1CC12CCN(C(=O)OC(C(F)(F)F)C(F)(F)F)CC2 (single isomer, unassigned) [Example 40, 1,1,1,3,3,3-hexafluoropropan-2-yl (R or S)-1-((5-fluoropyridin-3-yl)carbamoyl)-6-azaspiro[2.5]octane-6-carboxylate] | 43.25 | 0.0027 | 0.00343 | –
16 | CP(C)(=O)c1ccc(NC(=O)C2CC23CCN(C(=O)OC(C(F)(F)F)C(F)(F)F)CC3)cn1 (single isomer, unassigned) [Example 20, 1,1,1,3,3,3-Hexafluoropropan-2-yl (R or S)-1-((6-(dimethylphosphoryl)pyridin-3-yl)carbamoyl)-6-azaspiro[2.5]octane-6-carboxylate] | 0.85 | 0.029 | – | –
